Read-outs that look alike come from different tables or passages of the source.
Columns and labels:
[1] = tested on: irritated skin (epidermal permeability barrier)
Method: (§1) For the standardized washing, a normal commercially available shampoo which, according to the manufacturer, contains […] active cleansing substances was diluted with distilled water until it contained 10% active cleansing substances in the solution ready for use.
(§2) Tap water was used for the part-affusions with pure water.
(§3) The carbonated water employed was mechanically produced using an impregnation device in which tap water was supplemented with carbon dioxide under elevated pressure.
(§4) All the part-affusions take place at a temperature of 37° C.
(§5) The test was carried out as unilateral test on 20 test subjects (13 women and 7 men between 23 and 28 years of age). The volunteer test subjects were not subjected to any selection conditions apart from right-handedness. For random distribution, one half of the participants was treated with carbonic acid on the right hand and the other half was treated on the left hand.
(§6) Over a period of 2 weeks, the back of one hand of the test subjects was rinsed with carbonic acid for 1 min once a day. The other was rinsed with pure water as control. At the same time, the backs of both hands were repeatedly irritated by a standardized washing with the shampoo solution twice a day.
(§7) The effect of carbonic acid or pure water on the dermatophysiological parameters of irritated skin was measured using noninvasive dermatophysiological investigation methods.
(§8) The transepidermal water loss (TEWL) as a measure of the permeability barrier function was measured using the evaporimetry method. An EP1 evaporimeter (Servomed & Co., Hasselby, Stockholm, Sweden) was used. The relative skin hydration (RSH) was measured using the capacitance measurement method. A CM 820 PC corneometer (Courage & Khazaka Electronic GmbH, Cologne, Germany) was used. The measurements have been reported as mean of 2 recordings (evaporimetry) or 3 recordings (corneometry).
(§9) All the tests took place in the partially air-conditioned dermatophysiology laboratory at Osnabrück University.

irritated skin = settings: 2 weeks, 1 min rinse once a day, washing with shampoo solution twice a day; backs of hands
Method: as §1, §2, §3, §4, §5, §6, §7, §8, §9

[2] = tested on: epidermal ceramide synthesis; settings: SLS-irritated forearm; for values for the ceramide fraction (peak areas) versus test area treated with pure water: 1 min rinse daily, WILCOXON paired differences test
Method: On the first investigation date, test plasters with 60 μl of 1% strength sodium lauryl sulfate (conventional synthetic surfactant frequently used in dermatological irritability research) were stuck onto in each case 3 test sites on the right and left forearm, and the epidermal lipids (baseline values before irritation) were obtained in vivo on the 4th test site on the right and left forearm. After 24 h, the test plasters were removed and all the previously irritated test sites were again irritated with sodium lauryl sulfate with occlusion for 24 h.
The intention of the cumulative irritation with sodium lauryl sulfate for 2×24 h on two consecutive days was initially to induce disturbance of the epidermal barrier, including damage to the epidermal lipid lamellae.
On the first investigation day after the irritation (Monday), the rinsing was preceded by in vivo delipidation in each case of one irritated test site on the forearm to be treated with carbonic acid and that to be treated with pure water.
Pure water was used on the comparison side for reasons of standardization. […] Use of pure water on the comparison side thus makes it possible to state that the effects which are found are attributable exclusively to the carbonic acid.
The eluate of solvent and epidermal lipids obtained in vivo was initially evaporated under nitrogen, and the epidermal lipids were then frozen. In this way, the samples for chromatography were initially collected from all the subjects during the investigations.
For the investigations by thin-layer chromatography, the 8 samples from each subject were thawed and, using different concentrations of the standard mixture, developed and detected on a thin-layer plate.
Determination of the lipid pattern before irritation, immediately after irritation and after use for one week and two weeks of carbonic acid or pure water makes it possible to make detailed statements about the regeneration of the epidermal barrier and any effects of the use of carbonic acid on individual lipid fractions of the epidermal barrier lipids. […]

Compound: O=C(O)O [carbonic acid]
- increase in TEWL (comparison of medians) versus pure water ([1]; 2 weeks, 1 min rinse once a day, washing with shampoo solution twice a day, backs of hands): smaller increase in the TEWL
- TEWL 30 min after use versus test regions treated with pure water ([1]; 30 min after use, all days with the exception of the first day, P<0.05): significantly lower
- TEWL values versus test area treated with pure water ([1]; on days 3, 6, 7 and 8, values before daily use, WILCOXON paired differences test, P<0.05): significantly lower
- baseline values of the RSH and RSH 30 min after use versus pure water (irritated skin): higher (in some cases significantly higher)
- values for the ceramide fraction (peak areas) after the treatments versus baseline values ([2]; after treatment for one and two weeks): significantly higher than the baseline values
- values for the ceramide fraction (peak areas) versus test area treated with pure water ([2]; after treatment for one week): higher, nearly significantly so (p<0.05)
- values for the ceramide fraction (peak areas) versus test area treated with pure water ([2]; after treatment for two weeks): significantly so (p<0.01)
